The NIST ThermoML archive (doi:10.1016/j.jct.2007.01.017)

Columns and labels:
[1] = Liquid; for mass density: 298.15 K, 101.33 kPa; for vapor or sublimation pressure: 313.15 K
[2] = excess molar enthalpy (molar enthalpy of mixing); xn = mol fraction of the nth substance listed; details: 101 kPa, Liquid, Flow calorimetry

CCCCCCCCCl [1-chlorooctane]
Details	mass density [kg/m3]
[1]	868.98

CCCCCl [1-chlorobutane] + CN(C)C=O
excess molar enthalpy [kcal/mol], [2]
Details	298.15 K	308.15 K
x2 = 0.056	0.0294	–
x2 = 0.058	–	0.028
x2 = 0.106	0.0571	–
x2 = 0.108	–	0.0552
x2 = 0.207	0.0966	0.0956
x2 = 0.306	–	0.121
x2 = 0.308	0.122	–
x2 = 0.404	–	0.136
x2 = 0.407	0.135	–
x2 = 0.503	–	0.139
x2 = 0.507	0.136	–
x2 = 0.602	–	0.132
x2 = 0.606	0.129	–
x2 = 0.701	–	0.115
x2 = 0.705	0.112	–
x2 = 0.799	–	0.087
x2 = 0.803	0.0841	–
x2 = 0.898	–	0.048
x2 = 0.901	0.0459	–
x2 = 0.947	–	0.0246
x2 = 0.95	0.0234	–
x2 = 0.967	–	0.0146

CCCCCl [1-chlorobutane]
[1]
Details	mass density [kg/m3]	vapor or sublimation pressure [kPa]
–	880.72	25.72

CCCCCl [1-chlorobutane] + CC(=O)N(C)C
[2]
Details	excess molar enthalpy [kcal/mol]
298.15 K, x2 = 0.06	0.0163
298.15 K, x2 = 0.111	0.0337
298.15 K, x2 = 0.212	0.0583
298.15 K, x2 = 0.312	0.0748
298.15 K, x2 = 0.412	0.0846
298.15 K, x2 = 0.511	0.0868
298.15 K, x2 = 0.61	0.0832
298.15 K, x2 = 0.708	0.0729
298.15 K, x2 = 0.805	0.0559
298.15 K, x2 = 0.902	0.0311
298.15 K, x2 = 0.95	0.0165
308.15 K, x2 = 0.057	0.0163
308.15 K, x2 = 0.106	0.0335
308.15 K, x2 = 0.206	0.0588
308.15 K, x2 = 0.305	0.076
308.15 K, x2 = 0.404	0.0865
308.15 K, x2 = 0.503	0.0896
308.15 K, x2 = 0.602	0.0863
308.15 K, x2 = 0.7	0.0758
308.15 K, x2 = 0.799	0.0581
308.15 K, x2 = 0.897	0.0332
308.15 K, x2 = 0.946	0.0172
308.15 K, x2 = 0.966	0.0098

CN(C)C=O [dimethylformamide]
Details	mass density [kg/m3]
[1]	943.81

CCCCCCCl [1-chlorohexane] + CC(=O)N(C)C
excess molar enthalpy [kcal/mol], [2]
Details	298.15 K	308.15 K
x2 = 0.059	–	0.0253
x2 = 0.064	0.0251	–
x2 = 0.108	–	0.0488
x2 = 0.113	0.0476	–
x2 = 0.206	–	0.0935
x2 = 0.211	0.0908	–
x2 = 0.304	–	0.124
x2 = 0.309	0.119	–
x2 = 0.402	–	0.144
x2 = 0.407	0.137	–
x2 = 0.501	–	0.153
x2 = 0.505	0.1458	–
x2 = 0.6	–	0.151
x2 = 0.603	0.143	–
x2 = 0.698	–	0.136
x2 = 0.701	0.129	–
x2 = 0.798	0.102	0.108
x2 = 0.896	0.0588	–
x2 = 0.897	–	0.0626
x2 = 0.945	0.0315	–
x2 = 0.947	–	0.0335
x2 = 0.967	–	0.0201

CCCCCCCl [1-chlorohexane] + CN(C)C=O
[2]
Details	excess molar enthalpy [kcal/mol]
298.15 K, x2 = 0.058	0.0385
298.15 K, x2 = 0.107	0.0731
298.15 K, x2 = 0.205	0.13
298.15 K, x2 = 0.303	0.166
298.15 K, x2 = 0.402	0.1917
298.15 K, x2 = 0.5	0.2024
298.15 K, x2 = 0.598	0.1965
298.15 K, x2 = 0.697	0.177
298.15 K, x2 = 0.796	0.139
298.15 K, x2 = 0.894	0.0803
298.15 K, x2 = 0.944	0.0418
308.15 K, x2 = 0.062	0.0344
308.15 K, x2 = 0.111	0.0755
308.15 K, x2 = 0.208	0.133
308.15 K, x2 = 0.305	0.172
308.15 K, x2 = 0.403	0.1974
308.15 K, x2 = 0.501	0.2079
308.15 K, x2 = 0.6	0.2027
308.15 K, x2 = 0.699	0.182
308.15 K, x2 = 0.798	0.143
308.15 K, x2 = 0.897	0.0834
308.15 K, x2 = 0.947	0.0437
308.15 K, x2 = 0.967	0.0258

CCCCCCCCCl [1-chlorooctane] + CC(=O)N(C)C
[2]
Details	excess molar enthalpy [kcal/mol]
298.15 K, x2 = 0.067	0.0325
298.15 K, x2 = 0.117	0.0652
298.15 K, x2 = 0.215	0.124
298.15 K, x2 = 0.313	0.162
298.15 K, x2 = 0.411	0.186
298.15 K, x2 = 0.508	0.1981
298.15 K, x2 = 0.606	0.1962
298.15 K, x2 = 0.703	0.179
298.15 K, x2 = 0.8	0.146
298.15 K, x2 = 0.897	0.0884
298.15 K, x2 = 0.945	0.0483
308.15 K, x2 = 0.061	0.0323
308.15 K, x2 = 0.11	0.0655
308.15 K, x2 = 0.207	0.127
308.15 K, x2 = 0.305	0.168
308.15 K, x2 = 0.403	0.1953
308.15 K, x2 = 0.501	0.2089
308.15 K, x2 = 0.6	0.2082
308.15 K, x2 = 0.699	0.1912
308.15 K, x2 = 0.798	0.156
308.15 K, x2 = 0.898	0.0946
308.15 K, x2 = 0.948	0.0516
308.15 K, x2 = 0.968	0.0301

CCCCCCCCCl [1-chlorooctane] + CN(C)C=O
[2]
Details	excess molar enthalpy [kcal/mol]
298.15 K, x2 = 0.064	0.0416
298.15 K, x2 = 0.113	0.0863
298.15 K, x2 = 0.21	0.163
298.15 K, x2 = 0.308	0.212
298.15 K, x2 = 0.405	0.2459
298.15 K, x2 = 0.502	0.2598
298.15 K, x2 = 0.6	0.256
298.15 K, x2 = 0.698	0.2337
298.15 K, x2 = 0.795	0.189
298.15 K, x2 = 0.893	0.117
298.15 K, x2 = 0.942	0.0633
308.15 K, x2 = 0.069	0.0509
308.15 K, x2 = 0.117	0.092
308.15 K, x2 = 0.212	0.162
308.15 K, x2 = 0.309	0.2192
308.15 K, x2 = 0.406	0.2543
308.15 K, x2 = 0.503	0.2696
308.15 K, x2 = 0.601	0.2665
308.15 K, x2 = 0.699	0.2433
308.15 K, x2 = 0.798	0.198
308.15 K, x2 = 0.898	0.12
308.15 K, x2 = 0.948	0.0669
308.15 K, x2 = 0.968	0.0399

CC(=O)N(C)C [N,N-dimethylethanamide]
Details	mass density [kg/m3]
[1]	936.34

CCCCCCCl [1-chlorohexane]
[1]
Details	mass density [kg/m3]	vapor or sublimation pressure [kPa]
–	873.21	2.857
